The subject of series [1] is RAW264.7. The series can be described thus: Inhibition of LPS-induced nitric oxide production in mouse RAW264.7 cells after 24 hrs by Griess reaction. The class given is functional, cell-based. The conditions noted are these: RAW264.7, 24 h. In general terms: Nitrite, measured by Griess reagent, commonly stands in for NO production.
In series [2] the test system is RAW264.7. The series can be described thus: Cytotoxicity against mouse RAW264.7 cells assessed as cell viability at IC50 by colorimetric assay. The class given is cell-based.

Molecule `CC1=CC[C@@H](OC(=O)c2cccnc2)C2[C@@]1(C)[C@@H](OC(=O)c1cccnc1)C[C@]1(C)O[C@@]3(CC[C@]21C)COC(=O)C3` (stereo not given in full) had an IC50 with RAW264.7 [1] of 35.6 µM. Moreover, the Activity entry with RAW264.7 [2] is reported as “Non-toxic”.
As to `CC1=CCCC2[C@@]1(C)[C@@H](OC(=O)c1ccccc1)[C@H](OC(=O)c1cccnc1)[C@](C)(O)[C@]2(C)/C=C/C1=CC(=O)OC1` (stereo not given in full), the IC50 in the series on RAW264.7 [1] was 27.7 µM. The Activity result in the series on RAW264.7 [2] is listed as “Non-toxic”.
On the same counts, the results for `CC(=O)O[C@@H](CC1=C(O)C(=O)OC1)[C@]1(C)C2CCC=C(C)[C@]2(C)[C@@H](OC(=O)c2cccnc2)[C@H](O)[C@]1(C)O` (stereo not given in full) are > 50 µM and “Non-toxic”.
On the same counts, the results for `CC1=CCCC2[C@@]1(C)[C@@H](OC(=O)c1cccnc1)[C@H](O)[C@]1(C)O[C@]3(COC(=O)C3)C[C@H](OC(=O)c3cccnc3)[C@]21C` (stereo not given in full) are > 50 µM and “Non-toxic”.
In the same order, the values of `CC1=CC[C@@H](OC(=O)c2ccccc2)C2[C@@]1(C)[C@@H](OC(=O)c1cccnc1)[C@H](OC(=O)c1ccccc1)[C@]1(C)O[C@]3(CC[C@]21C)COC(=O)C3` (stereo not given in full) are > 50 µM and “Non-toxic”.
Molecule `C=C1CCCC2[C@@]1(C)[C@@H](OC(=O)c1ccccc1)[C@H](O)[C@]1(C)O[C@]3(COC(=O)C3)C[C@H](OC(=O)c3ccccc3)[C@]21C` (stereo not given in full) had an IC50 with RAW264.7 [1] of 20.6 µM. Besides, in the series with RAW264.7 [2], the Activity entry is recorded as “Non-toxic”.
On the same counts, the results for `C[C@@]12[C@@H](OC(=O)c3cccnc3)[C@H](OC(=O)c3ccccc3)[C@](C)(O)[C@](C)(/C=C/C3=CC(=O)OC3)[C@H]1CC=C[C@]2(C)O` [SCUTEBARBATINE F] are > 50 µM and “Non-toxic”.
On to `CC1=CC[C@@H](OC(=O)c2ccccc2)C2[C@@]1(C)[C@@H](OC(=O)c1cccnc1)[C@H](O)[C@]1(C)O[C@@]3(CC[C@]21C)COC(=O)C3` (stereo not given in full), for which the IC50 with RAW264.7 [1] came to 34.2 µM. Besides, the Activity entry in the series on RAW264.7 [2] is “Non-toxic”.
On the same counts, the results for `CC1=CC[C@@H](OC(=O)c2ccccc2)C2[C@@]1(C)[C@@H](OC(=O)c1cccnc1)[C@H](OC(=O)c1cccnc1)[C@]1(C)O[C@]3(CC[C@]21C)COC(=O)C3` (stereo not given in full) are 20.2 µM and “Non-toxic”.
On the same counts, the results for `CC(=O)O[C@@H](CC1=C(O)C(=O)OC1)[C@]1(C)C2CCC=C(C)[C@]2(C)[C@@H](OC(=O)c2cccnc2)[C@H](OC(=O)c2cccnc2)[C@]1(C)O` (stereo not given in full) are > 50 µM and “Non-toxic”.
On the same counts, the results for `CC1=CCCC2[C@@]1(C)[C@@H](OC(=O)c1cccnc1)[C@H](OC(=O)c1ccccc1)[C@](C)(O)[C@]2(C)/C=C/C1=CC(=O)OC1` (stereo not given in full) are 22.8 µM and “Non-toxic”.
For the molecule `CC(=O)O[C@@H](CC1=C(O)C(=O)OC1)[C@]1(C)C2CCC=C(C)[C@]2(C)[C@@H](OC(=O)c2cccnc2)[C@H](OC(=O)c2ccccc2)[C@]1(C)O` (stereo not given in full), in the series with RAW264.7 [1], the 50% inhibitory concentration (IC50) was > 50 µM. In the series on RAW264.7 [2], the Activity result is listed as “Non-toxic”.
In the same order, the values of `CC1=CCCC2[C@@]1(C)[C@@H](OC(=O)c1cccnc1)[C@H](OC(=O)c1cccnc1)[C@](C)(O)[C@]2(C)/C=C/C1=CC(=O)OC1` (stereo not given in full) are 26.3 µM and “Non-toxic”.
On the same counts, the results for `CC(=O)O[C@H]1[C@H](OC(C)=O)[C@]2(C)O[C@]3(CC[C@]2(C)C2[C@H](OC(=O)c4ccccc4)CC=C(C)[C@@]21C)COC(=O)C3` (stereo not given in full) are > 50 µM and “Non-toxic”.
In the same order, the values of `CC1=CC[C@@H](OC(=O)c2cccnc2)C2[C@@]1(C)[C@@H](OC(=O)c1cccnc1)[C@H](OC(=O)c1ccccc1)[C@]1(C)O[C@]3(CC[C@]21C)COC(=O)C3` (stereo not given in full) are 21.5 µM and “Non-toxic”.

In general, IC50 refers to the concentration that inhibits the measured activity by half.
